Measurements taken from patent US20200308171A1, “BIFUNCTIONAL INHIBITORS WITH EGFR HAVING A E3 UBIQUITIN LIGASE MOIETY” (Hoffmann-La Roche Inc., priority 2017, published 2020).
Where a name gives a salt, the structure may show the parent alone.

Biological target: T1, EGFR T790M/L858R/C797S (Homo sapiens, UniProt P00533, C797S/L858R/T790M)
T1 construct: expressed in transfected cells; host or cells: BaF3 (murine pro-B) cells stably transduced with pCDH lentiviral vector, PGK promoter
Assay: EGFR Degradation Assay (Cellular), FRET quantification of total EGFR
Type: cell-based
Settings: BaF3 EGFR mutant cell line (EGFR T790M/L858R/C797S); 4-hour incubation; total EGFR FRET kit; top concentration 1 μM, 11 points; read-out: IC50 [nM] mutant EGFR degradation
Method: EGFR Degradation Assay (Cellular)
The BaF3 parental line was purchased from DSMZ and grown in RPMI media supplemented with 10% FBS and 10 ng/mL interleukin 3 (IL-3) (Thermo Fisher Scientific). EGFR mutants ([…]) were cloned into the pCDH lentiviral vector (SystemBio) under the control of a PGK promoter and confirmed by DNA sequencing. The resulting gene expression vector for each mutant was mixed with packaging vectors and cotransfected into 2×10E6 HEK293T cells (ATCC) in 10 mL of DMEM media to generate lentiviral particles according to the manufacturers protocol (Origene).
Three days post-transfection, the viral supernatant was harvested and filtered. In one well of a 12-well plate, 0.5 mL of viral supernatant was added to 2E6 Ba/F3 cells contained in 1.5 mL of RPMI media including 10% FBS, 10 ng/mL IL-3, and 5 μg/mL polybrene (Invitrogen). The plate was centrifuged at 2,000 rpm for 1 hour at room temperature and infected cells were kept in a tissue culture incubator overnight at 37° C. The cells were washed once in fresh BaF3 media and reseeded at 0.5E6 cells/well of a 12-well plate in media supplemented with 0.5 μg/mL puromycin. The cells were maintained in this media for 3 weeks. IL-3-independent, EGFR mutant transformed cells were routinely maintained in RPMI medium supplemented with 10% FBS.
RPMI 1640 no-phenol red medium and fetal bovine serum (FBS) were purchased from Gibco (Grand Island, N.Y., USA). EGFR total kit and EGFR phospho-Y1068 kit were purchased from Cisbio (Bedford, Mass., USA). BaF3 EGFR mutant cell lines (EGFR T790M/L858R/C797S) cell line was generated in house, according to the protocol reported above. Cell culture flasks and 384-well microplates were acquired from VWR (Radnor, Pa., USA).
EGFR degradation was determined based on quantification of FRET signal using EGFR total kit. The FRET signal detected correlates with total EGFR protein level in cells. Briefly, test compounds were added to the 384-well plate from a top concentration of 1 μM with 11 points, half log titration in quadruplicates. Then, BaF3 EGFR mutant cell lines (EGFR T790M/L858R/C797S) were added into 384-well plates at a cell density of 10000 cells per well. The plates were kept at 37° C. with 5% CO2 for 4 hours. After 4-hour incubation, 4× lysis buffer was added to the cells, and then microplate was agitated on plate shaker at 500 rpm for 30 minutes at room temperature. Next, total EGFR antibody solution was added to the cells and the cells were incubated for another 4 hours at room temperature. Finally, FRET signal was acquired on EnVision™ Multilabel Reader (PerkinElmer, Santa Clara, Calif., USA). The cells treated in the absence of the test compound were the negative control and lysis buffer with antibody solution only were the positive control.

T1 sequence (P00533 25-1210 T790M/C797S/L858R): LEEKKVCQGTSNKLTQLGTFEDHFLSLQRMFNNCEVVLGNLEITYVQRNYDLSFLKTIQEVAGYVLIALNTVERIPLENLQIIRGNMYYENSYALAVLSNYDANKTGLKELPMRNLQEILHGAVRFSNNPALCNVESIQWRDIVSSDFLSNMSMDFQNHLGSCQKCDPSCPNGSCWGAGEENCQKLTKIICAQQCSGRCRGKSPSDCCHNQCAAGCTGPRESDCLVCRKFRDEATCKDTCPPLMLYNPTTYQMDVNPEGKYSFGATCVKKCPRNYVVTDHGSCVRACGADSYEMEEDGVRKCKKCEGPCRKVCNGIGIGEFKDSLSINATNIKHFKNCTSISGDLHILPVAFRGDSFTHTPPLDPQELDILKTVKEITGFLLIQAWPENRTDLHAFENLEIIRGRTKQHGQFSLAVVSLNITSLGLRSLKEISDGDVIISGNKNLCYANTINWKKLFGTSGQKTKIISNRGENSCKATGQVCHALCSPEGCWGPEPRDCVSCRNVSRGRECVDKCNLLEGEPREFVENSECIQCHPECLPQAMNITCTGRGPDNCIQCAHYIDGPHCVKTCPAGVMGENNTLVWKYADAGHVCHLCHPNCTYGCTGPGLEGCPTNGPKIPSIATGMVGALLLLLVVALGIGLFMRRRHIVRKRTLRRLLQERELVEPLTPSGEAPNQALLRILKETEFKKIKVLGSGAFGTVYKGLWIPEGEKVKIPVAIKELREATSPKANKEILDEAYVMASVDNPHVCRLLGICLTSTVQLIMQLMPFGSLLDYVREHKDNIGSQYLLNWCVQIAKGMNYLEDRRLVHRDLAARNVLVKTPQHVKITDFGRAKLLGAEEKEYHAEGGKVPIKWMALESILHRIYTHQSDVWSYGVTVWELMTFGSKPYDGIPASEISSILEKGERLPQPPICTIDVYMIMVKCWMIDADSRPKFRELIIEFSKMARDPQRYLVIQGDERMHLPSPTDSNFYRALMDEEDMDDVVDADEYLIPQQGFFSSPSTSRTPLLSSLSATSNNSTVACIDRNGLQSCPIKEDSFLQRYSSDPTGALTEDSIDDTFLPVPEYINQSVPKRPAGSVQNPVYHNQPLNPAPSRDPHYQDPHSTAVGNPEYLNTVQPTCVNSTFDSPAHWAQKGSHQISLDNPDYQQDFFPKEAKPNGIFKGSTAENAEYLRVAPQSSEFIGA

DC50	SMILES
73 nM	CO[C@H]1CCN(c2nccc(Nc3cc4c(cn3)c(C(=O)NC3CCN(CCCCC5CCN(c6ccc7c(c6)C(=O)N(C6CCC(=O)NC6=O)C7=O)CC5)CC3)cn4C(C)C)n2)C[C@H]1F (mixture of isomers) [Example 19, N-[1-[4-[1-[2-[(3RS)-2,6-Dioxo-3-piperidyl]-1,3-dioxo-isoindolin-5-yl]-4-piperidyl]butyl]-4-piperidyl]-6-[[2-[(3R,4S)(3S,4R)-3-fluoro-4-methoxy-1-piperidyl]pyrimidin-4-yl]amino]-1-isopropyl-pyrrolo[3,2-c]pyridine-3-carboxamide]
38 nM	COC1CCN(c2nccc(Nc3cc4c(cn3)c(C(=O)NC3CCN(CCCCCCNc5cccc6c5C(=O)N(C5CCC(=O)NC5=O)C6=O)CC3)cn4C3CCCC3)n2)CC1 (racemic) [Example 4, 1-Cyclopentyl-N-[1-[6-[[2-[(3RS)-2,6-dioxo-3-piperidyl]-1,3-dioxo-isoindolin-4-yl]amino]hexyl]-4-piperidyl]-6-[[2-(4-methoxy-1-piperidyl)pyrimidin-4-yl]amino]pyrrolo[3,2-c]pyridine-3-carboxamide]
132 nM	COC1CCN(c2nccc(Nc3cc4c(cn3)c(C(=O)NC3CCN(CCCCCCNc5cccc6c5C(=O)N(C5CCC(=O)NC5=O)C6=O)CC3)cn4C(C)C)n2)CC1 (racemic) [Example 2, N-[1-[6-[[2-[(3RS)-2,6-Dioxo-3-piperidyl]-1,3-dioxo-isoindolin-4-yl]amino]hexyl]-4-piperidyl]-1-isopropyl-6-[[2-(4-methoxy-1-piperidyl)pyrimidin-4-yl]amino]pyrrolo[3,2-c]pyridine-3-carboxamide]
28 nM	CO[C@H]1CCN(c2nccc(Nc3cc4c(cn3)c(C(=O)NC3CCN(CCCCCCNc5cccc6c5C(=O)N(C5CCC(=O)NC5=O)C6=O)CC3)cn4C(C)C)n2)C[C@H]1F (mixture of isomers) [Example 5, N-[1-[6-[[2-[(3RS)-2,6-Dioxo-3-piperidyl]-1,3-dioxo-isoindolin-4-yl]amino]hexyl]-4-piperidyl]-6-[[2-[(3R,4S)(3S,4R)-3-fluoro-4-methoxy-1-piperidyl]pyrimidin-4-yl]amino]-1-isopropyl-pyrrolo[3,2-c]pyridine-3-carboxamide]
49 nM	CO[C@H]1CCN(c2nccc(Nc3cc4c(cn3)c(C(=O)NC3CCN(CCC5CCN(c6ccc7c(c6)C(=O)N(C6CCC(=O)NC6=O)C7=O)CC5)CC3)cn4C3CCCC3)n2)C[C@H]1F (mixture of isomers) [Example 15, 1-Cyclopentyl-N-[1-[2-[1-[2-[(3RS)-2,6-dioxo-3-piperidyl]-1,3-dioxo-isoindolin-5-yl]-4-piperidyl]ethyl]-4-piperidyl]-6-[[2-[(3R,4S)-3-fluoro-4-methoxy-1-piperidyl]pyrimidin-4-yl]amino]pyrrolo[3,2-c]pyridine-3-carboxamide]
70 nM	CO[C@H]1CCN(c2nccc(Nc3cc4c(cn3)c(C(=O)NC3CCN(CCCCCCNc5cccc6c5C(=O)N(C5CCC(=O)NC5=O)C6=O)CC3)cn4C(C)C)n2)C[C@H]1F (mixture of isomers) [Example 7, N-[1-[6-[[2-[(3RS)-2,6-Dioxo-3-piperidyl]-1,3-dioxo-isoindolin-4-yl]amino]hexyl]-4-piperidyl]-6-[[2-[(3R,4S)-3-fluoro-4-methoxy-1-piperidyl]pyrimidin-4-yl]amino]-1-isopropyl-pyrrolo[3,2-c]pyridine-3-carboxamide]
26 nM	CO[C@H]1CCN(c2nccc(Nc3cc4c(cn3)c(C(=O)NC3CCN(CCCCCNc5cccc6c5C(=O)N(C5CCC(=O)NC5=O)C6=O)CC3)cn4C(C)C)n2)C[C@H]1F (mixture of isomers) [Example 9, N-[1-[5-[[2-[(3RS)-2,6-Dioxo-3-piperidyl]-1,3-dioxo-isoindolin-4-yl]amino]pentyl]-4-piperidyl]-6-[[2-[(3R,4S)-3-fluoro-4-methoxy-1-piperidyl]pyrimidin-4-yl]amino]-1-isopropyl-pyrrolo[3,2-c]pyridine-3-carboxamide]
59 nM	COC1CCN(c2nccc(Nc3cc4c(cn3)c(C(=O)NC3CCN(C(=O)CCCCCNc5cccc6c5C(=O)N(C5CCC(=O)NC5=O)C6=O)CC3)cn4C(C)C)n2)CC1 (racemic) [Example 1, N-[1-[6-[[2-[(3RS)-2,6-Dioxo-3-piperidyl]-1,3-dioxo-isoindolin-4-yl]amino]hexanoyl]-4-piperidyl]-1-isopropyl-6-[[2-(4-methoxy-1-piperidyl)pyrimidin-4-yl]amino]pyrrolo[3,2-c]pyridine-3-carboxamide]
43 nM	CO[C@H]1CCN(c2nccc(Nc3cc4c(cn3)c(C(=O)NC3CCN(CCCCCNc5cccc6c5C(=O)N(C5CCC(=O)NC5=O)C6=O)CC3)cn4C3CCCC3)n2)C[C@H]1F (mixture of isomers) [Example 11, 1-Cyclopentyl-N-[1-[5-[[2-[(3RS)-2,6-dioxo-3-piperidyl]-1,3-dioxo-isoindolin-4-yl]amino]pentyl]-4-piperidyl]-6-[[2-[(3R,4S)-3-fluoro-4-methoxy-1-piperidyl]pyrimidin-4-yl]amino]pyrrolo[3,2-c]pyridine-3-carboxamide]
69 nM	CO[C@H]1CCN(c2nccc(Nc3cc4c(cn3)c(C(=O)NC3CCN(CCCC5CCN(c6cccc7c6C(=O)N(C6CCC(=O)NC6=O)C7=O)CC5)CC3)cn4C(C)C)n2)C[C@H]1F (mixture of isomers) [Example 12, N-[1-[3-[1-[2-[(3RS)-2,6-Dioxo-3-piperidyl]-1,3-dioxo-isoindolin-4-yl]-4-piperidyl]propyl]-4-piperidyl]-6-[[2-[(3R,4S)(3S,4R)-3-fluoro-4-methoxy-1-piperidyl]pyrimidin-4-yl]amino]-1-isopropyl-pyrrolo[3,2-c]pyridine-3-carboxamide trifluoroacetate]
30 nM	CO[C@H]1CCN(c2nccc(Nc3cc4c(cn3)c(C(=O)NC3CCN(C(=O)N5CCN(CCCCNc6cccc7c6C(=O)N(C6CCC(=O)NC6=O)C7=O)CC5)CC3)cn4C3CCCC3)n2)C[C@H]1F (mixture of isomers) [Example 13, 1-Cyclopentyl-N-[1-[4-[4-[[2-[(3RS)-2,6-dioxo-3-piperidyl]-1,3-dioxo-isoindolin-4-yl]amino]butyl]piperazine-1-carbonyl]-4-piperidyl]-6-[[2-[(3R,4S)-3-fluoro-4-methoxy-1-piperidyl]pyrimidin-4-yl]amino]pyrrolo[3,2-c]pyridine-3-carboxamide]
28 nM	CO[C@H]1CCN(c2nccc(Nc3cc4c(cn3)c(C(=O)NC3CCN(CCC5CCN(c6ccc7c(c6)C(=O)N(C6CCC(=O)NC6=O)C7=O)CC5)CC3)cn4C(C)C)n2)C[C@H]1F (mixture of isomers) [Example 16, N-[1-[2-[1-[2-[(3RS)-2,6-Dioxo-3-piperidyl]-1,3-dioxo-isoindolin-5-yl]-4-piperidyl]ethyl]-4-piperidyl]-6-[[2-[(3R,4S)-3-fluoro-4-methoxy-1-piperidyl]pyrimidin-4-yl]amino]-1-isopropyl-pyrrolo[3,2-c]pyridine-3-carboxamide]
74 nM	CO[C@H]1CCN(c2nccc(Nc3cc4c(cn3)c(C(=O)NC3CCN(CCCOC5CCN(c6cccc7c6C(=O)N(C6CCC(=O)NC6=O)C7=O)CC5)CC3)cn4C(C)C)n2)C[C@H]1F (mixture of isomers) [Example 17, N-[1-[3-[[1-[2-[(3RS)-2,6-Dioxo-3-piperidyl]-1,3-dioxo-isoindolin-4-yl]-4-piperidyl]oxy]propyl]-4-piperidyl]-6-[[2-[(3R,4S)-3-fluoro-4-methoxy-1-piperidyl]pyrimidin-4-yl]amino]-1-isopropyl-pyrrolo[3,2-c]pyridine-3-carboxamide]
8 nM	CO[C@H]1CCN(c2nccc(Nc3cc4c(cn3)c(C(=O)NC3CCN(CCC5CN(c6cccc7c6C(=O)N(C6CCC(=O)NC6=O)C7=O)C5)CC3)cn4C(C)C)n2)C[C@H]1F (mixture of isomers) [Example 23, N-[1-[2-[1-[2-[(3RS)-2,6-Dioxo-3-piperidyl]-1,3-dioxo-isoindolin-4-yl]azetidin-3-yl]ethyl]-4-piperidyl]-6-[[2-[(3R,4S)-3-fluoro-4-methoxy-1-piperidyl]pyrimidin-4-yl]amino]-1-isopropyl-pyrrolo[3,2-c]pyridine-3-carboxamide]
